As a reminder, the IC50 is the concentration that gives 50% inhibition.

The subject of test [1] is Skin SCC SKXF 1834. Nature of the test: CFA, SKXF 1834. It is filed as cell-based, human. The following applies: PDX/CFA. The protocol: (§1) CFA was performed by Charles River Laboratories (Freiburg, Germany) in 96-well plate format according to a modified two-layer soft agar assay. The origin of the tumor xenografts has been described (Fiebig et al. 1989, incorporated herein by reference). The list of tumors used in this study is detailed in Table 1.

The subject of test [2] is Leukemia (AML) LEXFAM PL-21. Nature of the test: CFA, LEXFAM PL-21. It is filed as cell-based, human. As to conditions: Cell line/CFA. How it is done:
as §1

Test [3] relates to HaCaT normal immortal keratonocytes. Nature of the test: XTT cell viability assay, HaCaT. Format: cell-based, human. As to conditions: Cell line/XTT, 72 hr. The protocol:
(§2) A431 (human skin SCC), HT-297.T (human AK), and HaCaT transformed normal keratinocyte cell lines were from ATCC (Manassas, VA) and were maintained in DMEM supplemented with 10% FCS, 4 mM L-Gln, 1 mM sodium pyruvate, 100 U/mL penicillin, 1 μg/mL streptomycin. Human HK1 and HK2 plasmids were purchased from Addgene (Cambridge, MA) and were purified from E. Coli. VDAC1 was purified from sheep liver mitochondria as described (Arbel et al. 2012, incorporated herein by reference). Human skin tissue microarray (SK208 and SK 805) were purchased from US Biomax Inc. (Rockville, MD).
(§3) For XTT assays, cells were plated in 96-well plates (5,000 cells per well) for 24 hours. Cells were then incubated with different concentrations of Formula C in triplicates for 72 hr in DMEM supplemented with 0.5% FCS and 5 mM Glucose. Cell viability was evaluated using 2,3-bis-(2-methoxy-4-nitro-5-sulfophenyl)-2H-tetrazolium-5-carboxanilide (XTT)-based colorimetric assay kit (Biological Industries Ltd., Kibbutz Beit-Haemek, Israel). The optical density was measured by an Infinite 200 ELISA reader at 450 nm and reference was measured at 630 nm (Tecan, Männedorf, Switzerland).
(In general: Tetrazolium dyes change colour on reduction, which living cells bring about.)

In test [4] the test system is HT-297.T Actinic keratosis cells. Nature of the test: XTT cell viability assay, HT-297.T. Format: cell-based, human. As to conditions: Actinic keratosis HT-297.T; Cell line/XTT; 72 hr. How it is done: as §2, §3
Test [5] concerns A431 Skin SCC cells. Nature of the test: XTT cell viability assay, A431. It is filed as cell-based, human. The following applies: Cell line/XTT, 72 hr. How it is done: as §2, §3
For test [6], the system named is Leukemia (AML) LEXFAM THP-1. Nature of the test: CFA, LEXFAM THP-1. As to conditions: Cell line/CFA. Format: cell-based, human. The protocol: as §1
Test [7] concerns Lymphoma (Non-Hodgkin) LYXFNH U-937. Nature of the test: CFA, LYXFNH U-937. It is filed as cell-based, human. The following applies: Cell line/CFA. How it is done: as §1
Test [8] deals with Stomach GXF 214. Nature of the test: CFA, GXF 214. Format: cell-based, human. As to conditions: PDX/CFA. The protocol: as §1
Test [9] relates to Lung (NSCLC, epidermoid) LXFE 772. Nature of the test: CFA, LXFE 772. Format: cell-based, human. The following applies: PDX/CFA. The protocol:
as §1

For test [10], the system named is A431 cells. Nature of the test: Cellular ATP determination (CellTiter-Glo) in A431 cells. Format: cell-based, human. As to conditions: 2-hour incubation. The protocol: Cellular ATP levels were determined using CellTiter-Glo® Luminescent Cell Viability Assay kit (Promega, Madison, WI) following 2 hours of treatment at 37° C.
For orientation: Cellular ATP, detected with luciferase, serves as a proxy for viable cell number.

The test system of test [11] is Breast MAXF 574. Nature of the test: CFA, MAXF 574. Format: cell-based, human. As to conditions: PDX/CFA. How it is done:
as §1

The test system of test [12] is Cutanous T cell lymphoma MJ. Nature of the test: XTT cell viability assay, MJ. The following applies: Cell line/XTT. It is filed as cell-based, human. How it is done: as §3
The test system of test [13] is Stomach GXF 97. Nature of the test: CFA, GXF 97. It is filed as cell-based, human. As to conditions: PDX/CFA. How it is done: as §1
Test [14] relates to Cutanous T cell lymphoma MyLa. Nature of the test: CFA, MyLa. It is filed as cell-based, human. As to conditions: Cell line/CFA. How it is done:
as §1

The target in test [15] is T1, HK1 association with the mitochondria (Homo sapiens, UniProt P19367).
T1 construct: human skin SCC A431 cells (which express both HK1 and HK2); endogenous in cells; host or cells: A431
Nature of the test: Western Blot of mitochondrial fraction, HK1 in A431 cells. Format: cell-based. The following applies: similar experimental setup, data not shown. The protocol: A431 cells were treated for 2 hours at 37° C. with various concentrations of Formula C in medium without FCS and 2 mM L-Gln. Mitochondria were isolated using Mitochondria Isolation Kit (Thermo Fisher Scientific, Rockford, IL) followed by a WB. Semi-quantification of the WB was done with Imagequant TL software v8.1 (GE healthcare Life Sciences, Little Chalfont, United Kingdom). TIM22 was used as a loading control for mitochondria. Cyclophilin A (PPIA) was used as a cytosolic marker.
Antibodies used: anti-rabbit HK1 (C-20245) and HK2 (C-28765) from CST (Danvers, MA), anti-rabbit PPIA (ab41684, Abcam), anti-rabbit TIM22 (14927-1-AP, Proteintech Group Inc., Rosemont, IL), anti-rabbit Cytochrome C (PA1118, Boster Biological Technology, Pleasanton, CA). Detection was performed using secondary antibodies: peroxidase-conjugated Affinipure goat anti-rabbit IgG (H+L) or goat anti-mouse IgG (H+L) (111-035-003 and 115-035-003, Jackson ImmunoResearch, West Grove, PA), and development was using the ECL kit WesternBright™ ECL (K-12045-D10, Advansta, Menlo Park, California, USA).

Test [16] concerns Lung (NSCLC, large) LXFL 430. Nature of the test: CFA, LXFL 430. Format: cell-based, human. As to conditions: PDX/CFA. The protocol: as §1
Test [17] concerns Leukemia (BCLL) LEXFCM K-562. Nature of the test: CFA, LEXFCM K-562. Format: cell-based, human. The following applies: Cell line/CFA. How it is done:
as §1

In test [18] the test system is Lymphoma (Non-Hodgkin) LYXF MY-LA. Nature of the test: CFA, LYXF MY-LA. It is filed as cell-based, human. The following applies: Cell line/CFA. The protocol: as §1
For test [19], the system named is CTCL cell line MJ. Nature of the test: PrestoBlue cell viability, MJ. It is filed as cell-based, human. The following applies: 72 hours, read-out: absolute IC50, cell viability. How it is done:
Cutaneous T-cell lymphoma (CTCL) cell lines MJ and Hut78 were purchased from ATCC (CRL-8294, and TIB-161, respectively). Cells were grown in Iscove's Modified Dulbecco's Media supplemented with 2 mM L-glutamine, 10% fetal bovine serum, 100 U/mL of penicillin and 0.1 mg/mL of streptomycin.
Cells (1-2×10^4) were seeded in 96-well plates and treated with Formula C. Cell viability was determined 72 hours later using PrestoBlue reagent according to manufacturer's instruction (Life Technologies). The percentage of viability was expressed according to the fluorescence emitted by Formula C-treated cells compared to DMSO-treated control cells. The florescence emission values at 590 nm were measured with the plate-reader Spark 10M—multimode microplate reader (TECAN).

The test system of test [20] is Lung (NSCLC, epidermoid) LXFE 690. Nature of the test: CFA, LXFE 690. Format: cell-based, human. As to conditions: PDX/CFA. The protocol:
as §1

For test [21], the system named is Lung (SCLC) LXFS 538. Nature of the test: CFA, LXFS 538. It is filed as cell-based, human. The following applies: PDX/CFA. The protocol: as §1

T1 sequence (P19367 whole entry): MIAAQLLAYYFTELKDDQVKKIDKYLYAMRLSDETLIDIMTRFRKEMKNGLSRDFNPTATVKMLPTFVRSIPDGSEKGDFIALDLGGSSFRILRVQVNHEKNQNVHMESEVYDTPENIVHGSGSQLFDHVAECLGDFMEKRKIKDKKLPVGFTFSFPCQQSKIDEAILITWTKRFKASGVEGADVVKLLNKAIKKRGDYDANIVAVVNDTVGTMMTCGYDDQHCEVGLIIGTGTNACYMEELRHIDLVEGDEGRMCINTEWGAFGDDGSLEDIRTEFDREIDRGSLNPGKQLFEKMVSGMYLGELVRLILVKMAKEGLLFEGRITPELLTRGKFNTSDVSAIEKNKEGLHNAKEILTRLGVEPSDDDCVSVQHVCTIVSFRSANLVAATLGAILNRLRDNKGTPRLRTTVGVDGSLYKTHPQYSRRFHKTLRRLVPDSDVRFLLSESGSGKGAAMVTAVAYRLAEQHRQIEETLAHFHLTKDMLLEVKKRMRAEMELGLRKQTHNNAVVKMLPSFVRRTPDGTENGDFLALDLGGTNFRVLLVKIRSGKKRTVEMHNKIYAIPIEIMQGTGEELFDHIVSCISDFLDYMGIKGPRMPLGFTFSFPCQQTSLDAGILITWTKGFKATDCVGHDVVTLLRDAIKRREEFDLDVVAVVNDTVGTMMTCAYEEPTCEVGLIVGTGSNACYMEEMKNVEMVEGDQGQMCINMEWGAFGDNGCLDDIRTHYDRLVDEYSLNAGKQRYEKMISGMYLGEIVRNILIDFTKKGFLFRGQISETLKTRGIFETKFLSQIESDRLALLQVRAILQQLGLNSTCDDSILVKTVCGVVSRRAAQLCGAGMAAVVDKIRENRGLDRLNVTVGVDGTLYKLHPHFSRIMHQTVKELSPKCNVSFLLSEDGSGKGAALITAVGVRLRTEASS

With `CC/C=C\CC1C(=O)CCC1CC(=O)Oc1cccc2cccnc12` (stereo not drawn) [Formula C], the IC50 in test [1] is 742 nM; in [2], 1740 nM; in test [3], 3370 nM; in [4] it was 228 nM; in test [5] it was 14 nM; in [6] it was 2180 nM. The IC50 in test [7] turned out to be 1280 nM; in test [8], 1940 nM; in test [9], 3780 nM; in [11], 5410 nM; in [12] it was 1470 nM; in [13] it was 6450 nM. In addition, the IC50 in [14] is less than 1000 nM; in test [16] it was 237 nM; in test [17] it was 2340 nM; in [18], 1000 nM; in test [19], 1770 nM; in test [20], 6820 nM. The IC50 in [21] was found to be 163 nM. Further, the “reduction of cellular ATP levels” value in test [10] was no more than 50%. In test [15], the “HK1 association with the mitochondria” value is on record as “not affected”.

These data come from patent US12527782B2, “Use of hexokinase 2/mitochondria-detaching compounds for treating hexokinase-2 (HK2)-expressing cancers” (Vidac Pharma Ltd., priority 2016, dated 2026).
